US9695155B2, “Herbicidal substituted pyrimidinyloxy benzene compounds” (E. I. DU PONT DE NEMOURS AND COMPANY, priority 2013, dated 2017)

Key:
[1] = test system: giant foxtail; assay: Test C postemergence; type: in vivo, Setaria faberii; conditions: for Foxtail, Giant plant response rating / Plant response rating (0 to 100), Foxtail, Giant: postemergence; for Foxtail, Giant plant response rating: visual rating; for Foxtail, Giant plant response rating / Plant response rating, Foxtail, Giant: scale 0 to 100 (0 no effect, 100 complete control); for Plant response rating, Foxtail, Giant: Postemergence
Procedure, shortened: (§1)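 Whole-plant greenhouse test with surfactant-containing solvent formulation, applied preemergence to sown loam–sand pots or postemergence to 2–18 cm plants. Scored by eye 13 to 15 days on, 0–100 scale.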

[2] = test system: johnsongrass; assay: Test C postemergence; type: in vivo, Sorghum halepense; conditions: for Johnsongrass plant response rating / Plant response rating (0 to 100), Johnsongrass: postemergence; for Johnsongrass plant response rating: visual rating; for Johnsongrass plant response rating / Plant response rating, Johnsongrass: scale 0 to 100 (0 no effect, 100 complete control); for Plant response rating, Johnsongrass: Postemergence
Procedure, shortened: as §1

[3] = test system: waterhemp; assay: Test C postemergence; type: in vivo, Amaranthus rudis; conditions: for Plant response rating, Waterhemp: Postemergence
Procedure, shortened: as §1

[4] = test system: velvetleaf; assay: Test C postemergence; type: in vivo, Abutilon theophrasti; conditions: for Plant response rating, Velvetleaf: Postemergence
Procedure, shortened: as §1

[5] = test system: pigweed; assay: Test C postemergence; type: in vivo, Amaranthus retroflexus; conditions: for Plant response rating, Pigweed: Postemergence
Procedure, shortened: as §1

[6] = test system: giant foxtail; assay: Test A postemergence; type: in vivo, Setaria faberii
Procedure, shortened: (§2)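 Visual injury scored 0–100 (100 = complete control) against untreated controls about 10 days after treatment in a greenhouse. Test chemicals, formulated with surfactant in non-phytotoxic solvent, were sprayed on soil preemergence or on 2-10 cm, one- to two-leaf plants postemergence.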

[7] = test system: corn; assay: Test A postemergence; type: in vivo, Zea mays
Procedure, shortened: as §2

[8] = test system: corn; assay: Test C postemergence; type: in vivo, Zea mays; conditions: for Corn plant response rating / Plant response rating (0 to 100), Corn: postemergence; for Corn plant response rating: visual rating; for Corn plant response rating / Plant response rating, Corn: scale 0 to 100 (0 no effect, 100 complete control); for Plant response rating, Corn: Postemergence
Procedure, shortened: as §1

[9] = test system: barnyardgrass; assay: Test A postemergence; type: in vivo, Echinochloa crus-galli
Procedure, shortened: as §2

[10] = test system: oilseed rape; assay: Test C postemergence; type: in vivo, Brassica napus; conditions: for Plant response rating, Oilseed Rape: Postemergence
Procedure, shortened: as §1

[11] = test system: Heteranthera limosa; assay: Test B flooded paddy test; type: in vivo; conditions: Flood, 250 g ai/ha; 0 to 100 scale where 0 is no effect and 100 is complete control
Procedure, shortened: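 Flooded to 3 cm at the 2-leaf stage, pots received compound through the paddy water and were kept at that depth under greenhouse conditions. After 13–15 days, effect was rated by eye relative to controls, 0 = none and 100 = complete control.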

[12] = test system: morningglory; assay: Test C postemergence; type: in vivo, Ipomoea coccinea; conditions: for Plant response rating, Morningglory: Postemergence
Procedure, shortened: as §1

[13] = 31 g ai/ha, scale 0 to 100 (0 no effect, 100 complete control), 13 to 15 days
[14] = 62 g ai/ha, scale 0 to 100 (0 no effect, 100 complete control)
[15] = 125 g ai/ha, 0 to 100 scale where 0 is no effect and 100 is complete control
[16] = 500 g ai/ha, 0 to 100 scale where 0 is no effect and 100 is complete control
[17] = 8 g ai/ha, 0 is no effect, 100 is complete control
[18] = 16 g ai/ha, 0 is no effect, 100 is complete control
[19] = 8 g ai/ha, postemergence, 0 is no effect, 100 is complete control
[20] = 16 g ai/ha, postemergence, 0 is no effect, 100 is complete control
[21] = 31 g ai/ha, postemergence, visual rating, scale 0 to 100 (0 no effect, 100 complete control), 13 to 15 days
[22] = 31 g ai/ha, 0 to 100 scale, 0 no effect, 100 complete control

## Cc1cnc(Oc2cccc(C#N)c2-n2cc(C#N)cn2)nc1 [Compound 90]
[1]; 16 g ai/ha, 13 to 15 days
  Foxtail, Giant plant response rating: 35
[1]; 125 g ai/ha
  Plant response rating (0 to 100), Foxtail, Giant: 20
[1]; 31 g ai/ha, 13 to 15 days
  Plant response rating, Foxtail, Giant: 15
[1]; 62 g ai/ha
  Plant response rating, Foxtail, Giant: 20
[2]; 16 g ai/ha, 13 to 15 days
  Johnsongrass plant response rating: 0
[2]; 125 g ai/ha
  Plant response rating (0 to 100), Johnsongrass: 5
[2]; 31 g ai/ha, 13 to 15 days
  Plant response rating, Johnsongrass: 5
[2]; 62 g ai/ha
  Plant response rating, Johnsongrass: 5
[3]; 125 g ai/ha, postemergence
  Plant response rating (0 to 100), Waterhemp: 75
[3]; [13]
  Plant response rating, Waterhemp: 35
[3]; [14]
  Plant response rating, Waterhemp: 65
[4]; 125 g ai/ha, postemergence
  Plant response rating (0 to 100), Velvetleaf: 60
[4]; [13]
  Plant response rating, Velvetleaf: 55
[4]; [14]
  Plant response rating, Velvetleaf: 60
[5]; 125 g ai/ha, postemergence
  Plant response rating (0 to 100), Pigweed: 70
[5]; [13]
  Plant response rating, Pigweed: 45
[5]; [14]
  Plant response rating, Pigweed: 45
[6]; [15]
  Plant response rating, Foxtail, Giant: 80
[6]; [16]
  Plant response rating, Foxtail, Giant: 90
[7]; [15]
  Plant response rating, Corn: 0
[7]; [16]
  Plant response rating, Corn: 80
[8]; 16 g ai/ha, 13 to 15 days
  Corn plant response rating: 0
[8]; 125 g ai/ha
  Plant response rating (0 to 100), Corn: 5
[8]; 31 g ai/ha, 13 to 15 days
  Plant response rating, Corn: 5
[8]; 62 g ai/ha
  Plant response rating, Corn: 5
[9]; [15]
  Plant response rating, Barnyardgrass: 90
[9]; [16]
  Plant response rating, Barnyardgrass: 100
[10]; 125 g ai/ha, postemergence
  Plant response rating (0 to 100), Oilseed Rape: 40
[10]; [13]
  Plant response rating, Oilseed Rape: 5
[10]; [14]
  Plant response rating, Oilseed Rape: 50
[11]
  Plant response rating, Ducksalad: 40
[12]; 125 g ai/ha, postemergence
  Plant response rating (0 to 100), Morningglory: 85
[12]; [13]
  Plant response rating, Morningglory: 60
[12]; [14]
  Plant response rating, Morningglory: 75

## FCc1cccc(Oc2ncc(F)cn2)c1-n1cc(I)cn1 [Compound 152]
[1]; [17]
  Plant response rating (0 to 100), Foxtail, Giant: 0
[1]; [18]
  Plant response rating (0 to 100), Foxtail, Giant: 5
[1]; 31 g ai/ha, 13 to 15 days
  Foxtail, Giant plant response rating: 5
[2]; [17]
  Plant response rating (0 to 100), Johnsongrass: 0
[2]; [18]
  Plant response rating (0 to 100), Johnsongrass: 5
[2]; 31 g ai/ha, 13 to 15 days
  Johnsongrass plant response rating: 5
[3]; [19]
  Plant response rating (0 to 100), Waterhemp: 15
[3]; [20]
  Plant response rating (0 to 100), Waterhemp: 45
[3]; [21]
  Waterhemp plant response rating: 60
[4]; [19]
  Plant response rating (0 to 100), Velvetleaf: 5
[4]; [20]
  Plant response rating (0 to 100), Velvetleaf: 20
[4]; [21]
  Velvetleaf plant response rating: 45
[5]; [19]
  Plant response rating (0 to 100), Pigweed: 30
[5]; [20]
  Plant response rating (0 to 100), Pigweed: 50
[5]; [21]
  Pigweed plant response rating: 60
[6]; [22]
  Plant response rating, Foxtail, Giant: 0
[6]; [15]
  Foxtail, Giant plant response rating: 40
[7]; [22]
  Plant response rating, Corn: 20
[7]; [15]
  Corn plant response rating: 30
[8]; 4 g ai/ha, 0 is no effect, 100 is complete control
  Plant response rating (0 to 100), Corn: 0
[8]; [17]
  Plant response rating (0 to 100), Corn: 0
[8]; [18]
  Plant response rating (0 to 100), Corn: 5
[8]; 31 g ai/ha, 13 to 15 days
  Corn plant response rating: 5
[9]; [22]
  Plant response rating, Barnyardgrass: 0
[9]; [15]
  Barnyardgrass plant response rating: 30
[10]; [19]
  Plant response rating (0 to 100), Oilseed Rape: 5
[10]; [20]
  Plant response rating (0 to 100), Oilseed Rape: 35
[10]; [21]
  Oilseed Rape plant response rating: 60
[11]
  Plant response rating, Ducksalad: 60
[12]; [19]
  Plant response rating (0 to 100), Morningglory: 0
[12]; [20]
  Plant response rating (0 to 100), Morningglory: 10
[12]; [21]
  Morningglory plant response rating: 40
